Measured values: ChEMBL document CHEMBL1201862, “PubChem BioAssay data set” (2004)
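Tested at 5 concentrations; 48 h exposure; 96-well plates; endpoints linearly interpolated, else capped at highest concentration. At the GI50, growth is halved.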 Calls of active or inactive are those of the source. Rule as the data show it: active = GI50 up to about 1.1 µM and inactive = higher.

Columns and labels:
Test in all cases: NCI tumour cell line growth inhibition, 48 h
786-0 = test system: 786-0
A549 = test system: A549
ACHN = test system: ACHN
BT-549 = test system: BT-549
CAKI-1 = test system: CAKI-1
CCRF-CEM = test system: CCRF-CEM
COLO 205 = test system: COLO 205
DU-145 = test system: DU-145
EKVX = test system: EKVX
HCC 2998 = test system: HCC 2998
HCT-116 = test system: HCT-116
HCT-15 = test system: HCT-15
HL-60 = test system: HL-60
HOP-62 = test system: HOP-62
HOP-92 = test system: HOP-92
HT-29 = test system: HT-29
Hs-578T = test system: Hs-578T
IGROV-1 = test system: IGROV-1
K562 = test system: K562
KM12 = test system: KM12
LOX IMVI = test system: LOX IMVI
M14 = test system: M14
MDA-MB-231 = test system: MDA-MB-231
MDA-MB-435 = test system: MDA-MB-435
MDA-N = test system: MDA-N
MOLT-4 = test system: MOLT-4
NCI-H226 = test system: NCI-H226
NCI-H23 = test system: NCI-H23
NCI-H460 = test system: NCI-H460
NCI-H522 = test system: NCI-H522
NCI/ADR-RES = test system: NCI/ADR-RES
OVCAR-3 = test system: OVCAR-3
OVCAR-8 = test system: OVCAR-8
PC-3 = test system: PC-3
RPMI-8226 = test system: RPMI-8226
RXF 393 = test system: RXF 393
SF-268 = test system: SF-268
SF-295 = test system: SF-295
SF-539 = test system: SF-539
SK-MEL-28 = test system: SK-MEL-28
SK-MEL-2 = test system: SK-MEL-2
SK-MEL-5 = test system: SK-MEL-5
SK-OV-3 = test system: SK-OV-3
SN12C = test system: SN12C
SNB-75 = test system: SNB-75
SR = test system: SR
SW-620 = test system: SW-620
T47D = test system: T47D
TK-10 = test system: TK-10
U-251 = test system: U-251
UACC-257 = test system: UACC-257
UACC-62 = test system: UACC-62
UO-31 = test system: UO-31
A498 = test system: A498
MCF7 = test system: MCF7
Malme-3M = test system: Malme-3M
OVCAR-4 = test system: OVCAR-4
OVCAR-5 = test system: OVCAR-5
SNB-19 = test system: SNB-19

For `O=c1oc2ccc3ccccc3c2cc1-c1cn2ccccc2n1`, the GI50 (786-0) was 37.2 µM (inactive), the GI50 (A549) was 24.7 µM (inactive) and the GI50 (ACHN) was 22.6 µM (inactive). For the same compound, the GI50 (BT-549) was > 100 µM (inactive), the GI50 (CAKI-1) was 11.8 µM (inactive) and the GI50 (CCRF-CEM) was > 100 µM (inactive). The GI50 (COLO 205) was > 100 µM (inactive), the GI50 (DU-145) was > 100 µM (inactive) and the GI50 (EKVX) was 30.5 µM (inactive). The GI50 (HCC 2998) was > 100 µM (inactive), the GI50 (HCT-116) was 14.9 µM (inactive) and the GI50 (HCT-15) was over 100 µM. For the same compound, the GI50 (HL-60) was > 100 µM (inactive), the GI50 (HOP-62) was 52.6 µM (inactive) and the GI50 (HOP-92) was 90.6 µM (inactive). For the same compound, the GI50 (HT-29) was 26.5 µM (inactive), the GI50 (Hs-578T) was 35.6 µM (inactive) and the GI50 (IGROV-1) was > 100 µM (inactive). The GI50 (K562) was > 100 µM (inactive), the GI50 (KM12) was 57.7 µM (inactive) and the GI50 (LOX IMVI) was 91.8 µM (inactive). The GI50 (M14) was > 100 µM (inactive), the GI50 (MDA-MB-231) was 24.2 µM (inactive) and the GI50 (MDA-MB-435) was > 100 µM (inactive). For the same compound, the GI50 (MDA-N) was > 100 µM (inactive), the GI50 (MOLT-4) was > 100 µM (inactive) and the GI50 (NCI-H226) was > 100 µM (inactive). The GI50 (NCI-H23) was > 100 µM (inactive), the GI50 (NCI-H460) was > 100 µM (inactive) and the GI50 (NCI-H522) was 26.3 µM (inactive). For the same compound, the GI50 (NCI/ADR-RES) was > 100 µM (inactive), the GI50 (OVCAR-3) was > 100 µM (inactive) and the GI50 (OVCAR-8) was 51.3 µM (inactive). The GI50 (PC-3) was > 100 µM (inactive), the GI50 (RPMI-8226) was > 100 µM (inactive) and the GI50 (RXF 393) was > 100 µM (inactive). For the same compound, the GI50 (SF-268) was 80.5 µM (inactive), the GI50 (SF-295) was 37.2 µM (inactive) and the GI50 (SF-539) was 25.9 µM (inactive). The GI50 (SK-MEL-28) was > 100 µM (inactive), the GI50 (SK-MEL-2) was > 100 µM (inactive) and the GI50 (SK-MEL-5) was > 100 µM (inactive). The GI50 (SK-OV-3) was 39.4 µM (inactive), the GI50 (SN12C) was 48.1 µM (inactive) and the GI50 (SNB-75) was > 100 µM (inactive). For the same compound, the GI50 (SR) was > 100 µM (inactive), the GI50 (SW-620) was > 100 µM (inactive) and the GI50 (T47D) was > 100 µM (inactive). For the same compound, the GI50 (TK-10) was 67.8 µM (inactive), the GI50 (U-251) was 24.2 µM (inactive) and the GI50 (UACC-257) was > 100 µM (inactive). The GI50 (UACC-62) was > 100 µM (inactive) and the GI50 (UO-31) was 20 µM (inactive).

`CC(C)=CC1C(C(=O)Oc2ccccc2C(C)C)C1(C)C` (stereo unspecified) was tested, and the GI50 (786-0) was 19.9 µM (inactive), the GI50 (A498) was 19.7 µM (inactive) and the GI50 (A549) was 31.1 µM (inactive). The GI50 (ACHN) was 18.4 µM (inactive), the GI50 (BT-549) was 30 µM (inactive) and the GI50 (CAKI-1) was 32.4 µM (inactive). The GI50 (CCRF-CEM) was 22.8 µM (inactive), the GI50 (DU-145) was 40.5 µM (inactive) and the GI50 (EKVX) was 17.3 µM (inactive). For the same compound, the GI50 (HCC 2998) was 17.8 µM (inactive), the GI50 (HCT-116) was 20.8 µM (inactive) and the GI50 (HCT-15) was 21 µM. The GI50 (HL-60) was 19.1 µM (inactive), the GI50 (HOP-62) was 27.9 µM (inactive) and the GI50 (HOP-92) was 25.5 µM (inactive). The GI50 (HT-29) was 16.4 µM (inactive), the GI50 (Hs-578T) was 39.9 µM (inactive) and the GI50 (IGROV-1) was 29.8 µM (inactive). For the same compound, the GI50 (K562) was 25.8 µM (inactive), the GI50 (KM12) was 18.1 µM (inactive) and the GI50 (LOX IMVI) was 17.7 µM (inactive). The GI50 (M14) was 31.6 µM (inactive), the GI50 (MCF7) was 19.8 µM (inactive) and the GI50 (MDA-MB-231) was 22.9 µM (inactive). The GI50 (MDA-MB-435) was 30.8 µM (inactive), the GI50 (MDA-N) was 26.4 µM (inactive) and the GI50 (Malme-3M) was 16.3 µM (inactive). For the same compound, the GI50 (NCI-H23) was 23.8 µM (inactive), the GI50 (NCI-H460) was 22.4 µM (inactive) and the GI50 (NCI-H522) was 16.6 µM (inactive). The GI50 (NCI/ADR-RES) was 30 µM (inactive), the GI50 (OVCAR-3) was 17.8 µM (inactive) and the GI50 (OVCAR-4) was 52 µM (inactive). For the same compound, the GI50 (OVCAR-5) was 27.1 µM (inactive), the GI50 (OVCAR-8) was 31.7 µM (inactive) and the GI50 (RPMI-8226) was 19.3 µM (inactive). The GI50 (RXF 393) was 16.9 µM (inactive), the GI50 (SF-268) was 35.5 µM (inactive) and the GI50 (SF-295) was 17.7 µM (inactive). The GI50 (SK-MEL-28) was 39.1 µM (inactive), the GI50 (SK-MEL-2) was 17.1 µM (inactive) and the GI50 (SK-MEL-5) was 18.2 µM (inactive). For the same compound, the GI50 (SK-OV-3) was 31.6 µM (inactive), the GI50 (SN12C) was 20.5 µM (inactive) and the GI50 (SNB-19) was 34.3 µM (inactive). For the same compound, the GI50 (SNB-75) was 21.3 µM (inactive), the GI50 (SR) was 20.9 µM (inactive) and the GI50 (SW-620) was 24.3 µM (inactive). The GI50 (T47D) was 19.8 µM (inactive), the GI50 (TK-10) was 32.8 µM (inactive) and the GI50 (U-251) was 16.7 µM (inactive). For the same compound, the GI50 (UACC-257) was 19.5 µM (inactive), the GI50 (UACC-62) was 36.7 µM (inactive) and the GI50 (UO-31) was 17.7 µM (inactive).

For `Nc1nc2[nH]cc(CCc3ccc(C(=O)N[C@@H](CCC(=O)O)C(=O)O)cc3)c2c(=O)[nH]1` [PEMETREXED], the GI50 (786-0) was < 0.0104 µM (active), the GI50 (A498) was 0.27 µM (active) and the GI50 (A549) was 1.4 µM (inactive). For the same compound, the GI50 (ACHN) was 0.0255 µM (active), the GI50 (BT-549) was > 100 µM (inactive) and the GI50 (CAKI-1) was > 100 µM (inactive). The GI50 (COLO 205) was > 100 µM (inactive), the GI50 (DU-145) was > 100 µM (inactive) and the GI50 (EKVX) was > 100 µM (inactive). For the same compound, the GI50 (HCC 2998) was < 0.01 µM (active), the GI50 (HCT-116) was 0.0597 µM (active) and the GI50 (HCT-15) was over 100 µM. For the same compound, the GI50 (HL-60) was 0.0652 µM (active), the GI50 (HOP-62) was > 100 µM (inactive) and the GI50 (HOP-92) was > 100 µM (inactive). The GI50 (HT-29) was > 100 µM (inactive), the GI50 (Hs-578T) was > 100 µM (inactive) and the GI50 (IGROV-1) was > 100 µM (inactive). The GI50 (K562) was < 0.0258 µM (active), the GI50 (KM12) was > 100 µM (inactive) and the GI50 (LOX IMVI) was 0.0743 µM (active). For the same compound, the GI50 (M14) was > 100 µM (inactive), the GI50 (MCF7) was < 0.0147 µM (active) and the GI50 (MDA-MB-231) was 10.3 µM (inactive). The GI50 (MDA-MB-435) was > 100 µM (inactive), the GI50 (MDA-N) was > 100 µM (inactive) and the GI50 (MOLT-4) was 0.0695 µM (active). For the same compound, the GI50 (Malme-3M) was > 100 µM (inactive), the GI50 (NCI-H226) was > 100 µM (inactive) and the GI50 (NCI-H23) was > 100 µM (inactive). The GI50 (NCI-H460) was 0.0359 µM (active), the GI50 (NCI-H522) was > 100 µM (inactive) and the GI50 (OVCAR-3) was > 100 µM (inactive). For the same compound, the GI50 (OVCAR-4) was > 100 µM (inactive), the GI50 (OVCAR-5) was > 100 µM (inactive) and the GI50 (PC-3) was > 100 µM (inactive). For the same compound, the GI50 (RXF 393) was > 100 µM (inactive), the GI50 (SF-268) was 0.387 µM (active) and the GI50 (SF-295) was 0.418 µM (active). The GI50 (SF-539) was < 0.01 µM (active), the GI50 (SK-MEL-28) was > 100 µM (inactive) and the GI50 (SK-MEL-2) was > 100 µM (inactive). The GI50 (SK-MEL-5) was > 100 µM (inactive), the GI50 (SK-OV-3) was > 100 µM (inactive) and the GI50 (SN12C) was > 100 µM (inactive). For the same compound, the GI50 (SNB-19) was > 100 µM (inactive), the GI50 (SNB-75) was > 100 µM (inactive) and the GI50 (SR) was > 100 µM (inactive). For the same compound, the GI50 (SW-620) was > 100 µM (inactive), the GI50 (T47D) was > 100 µM (inactive) and the GI50 (TK-10) was > 100 µM (inactive). The GI50 (U-251) was > 100 µM (inactive), the GI50 (UACC-257) was > 100 µM (inactive) and the GI50 (UACC-62) was 0.23 µM (active).
